# Assay results published in BindingDB's records for doi:10.7270/Q2HQ3XB9 (Nmmlsc, 2008).
# Target: T1, Estrogen receptor (Homo sapiens, UniProt P03372)
# T1 sequence (P03372 whole entry): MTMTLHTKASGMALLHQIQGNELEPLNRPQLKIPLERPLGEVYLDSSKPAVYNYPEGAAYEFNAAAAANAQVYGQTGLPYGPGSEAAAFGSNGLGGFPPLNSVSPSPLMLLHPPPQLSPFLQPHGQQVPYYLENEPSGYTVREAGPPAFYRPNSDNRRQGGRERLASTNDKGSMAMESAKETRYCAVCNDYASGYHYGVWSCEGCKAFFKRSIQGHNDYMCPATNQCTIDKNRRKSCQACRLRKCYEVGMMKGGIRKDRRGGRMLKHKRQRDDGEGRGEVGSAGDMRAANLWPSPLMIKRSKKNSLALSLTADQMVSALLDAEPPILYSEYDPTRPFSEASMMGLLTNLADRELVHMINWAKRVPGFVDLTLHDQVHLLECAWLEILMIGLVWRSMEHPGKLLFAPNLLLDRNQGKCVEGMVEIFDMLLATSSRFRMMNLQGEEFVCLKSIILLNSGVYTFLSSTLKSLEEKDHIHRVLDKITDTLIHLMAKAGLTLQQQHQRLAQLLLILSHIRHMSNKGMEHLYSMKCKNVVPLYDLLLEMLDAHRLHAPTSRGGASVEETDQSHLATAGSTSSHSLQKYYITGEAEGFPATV
# Assay: fluorescent estrogen displacement from ERalpha – cell-based, Cos7 ERalpha-GFP, flow cytometry, dose response (AID 1223)
# Details: not given
row,EC50,Compound
1,782 nM,Brc1cc2c(cc1[C@@H]1Nc3ccccc3[C@@H]3C=CC[C@@H]31)OCO2
2,> 10000 nM,"CC(=O)c1ccc2c(c1)C1C=CCC1C(c1cccc([N+](=O)[O-])c1)N2 (stereo not given) [1-[4-(3-nitrophenyl)-3a,4,5,9b-tetrahydro-3H-cyclopenta[c]quinolin-8-yl]ethanone]"
3,15.4 nM,"COc1ccccc1N1CCN(C(=O)c2ccc3nc(-c4ccco4)c(-c4ccco4)nc3c2)CC1 [2,3-di-2-furyl-6-{[4-(2-methoxyphenyl)piperazin-1-yl]carbonyl}quinoxaline]"
4,367 nM,"O=C(Nc1cc(C(F)(F)F)ccc1N1CCOCC1)C1Cc2ccccc2CN1C(=O)c1ccco1 (stereo not given) [2-(2-furoyl)-N-[2-morpholino-5-(trifluoromethyl)phenyl]-3,4-dihydro-1H-isoquinoline-3-carboxamide]"
5,> 10000 nM,"Cc1cc(C)cc(OCC(=O)Nc2ccc(N3CCCC3)cc2)c1 [2-(3,5-dimethylphenoxy)-N-(4-pyrrolidin-1-ylphenyl)acetamide]"
6,48.7 nM,"COc1nc(-c2ccc(Cl)cc2)ccc1-c1noc(-c2ccco2)n1 [3-[6-(4-chlorophenyl)-2-methoxy-3-pyridinyl]-5-(2-furanyl)-1,2,4-oxadiazole]"
7,> 10000 nM,"CCn1c(=NC(=O)c2ccc(-n3c(O)ccc3O)cc2)sc2c(OC)ccc(OC)c21 [4-[2,5-bis(oxidanylidene)pyrrolidin-1-yl]-N-(3-ethyl-4,7-dimethoxy-1,3-benzothiazol-2-ylidene)benzamide]"
8,4.25 nM,O=C(COC(=O)CCC(=O)c1cccs1)NCc1ccco1 [4-keto-4-(2-thienyl)butyric acid [2-(2-furfurylamino)-2-keto-ethyl] ester]
9,44.4 nM,"Cc1cc(C)c2c(c1)[C@@H]1C=CC[C@@H]1[C@H](c1ccc(S(=O)(=O)N3CCOCC3)cc1)N2 [(3aS,4R,9bR)-6,8-dimethyl-4-[4-(morpholin-4-ylsulfonyl)phenyl]-3a,4,5,9b-tetrahydro-3H-cyclopenta[c]quinoline]"
10,1430 nM,COc1ccc(C(=O)NN=C(C)c2ccc3c(c2)C2C=CCC2C(c2ccccc2)N3)cc1 (stereo not given) [SMR000176871]

row,Compound,EC50
1,"CC(=O)Oc1ccc(C2Nc3c(C(=O)O)ccc([N+](=O)[O-])c3C3C=CCC32)cc1 (stereo not given) [4-(4-acetoxyphenyl)-9-nitro-3a,4,5,9b-tetrahydro-3H-cyclopenta[c]quinoline-6-carboxylic acid]",> 10000 nM
2,"C[C@]12CC[C@@H]3c4ccc(O)cc4[C@@H](O)C[C@H]3[C@@H]1CC[C@@H]2O [(6S,8R,9S,13S,14S,17S)-13-methyl-6,7,8,9,11,12,14,15,16,17-decahydrocyclopenta[a]phenanthrene-3,6,17-triol]",36.6 nM

# Same assay, conditions: inactive by the depositor's call
row,EC50,Compound
1,3880 nM,COc1cccc(NS(=O)(=O)c2ccc3c(c2)C2C=CCC2C(c2ccc(C(=O)O)cc2)N3)c1 (stereo not given)
2,3600 nM,COc1ccc(NS(=O)(=O)c2ccc3c(c2)[C@H]2C=CC[C@H]2[C@@H](c2ccc(C(=O)O)cc2)N3)cc1
3,33.9 nM,O=C(OCC(=O)N1CCN(C(=O)c2ccco2)CC1)c1cc(-c2ccco2)nc2ccccc12 [2-(2-furanyl)-4-quinolinecarboxylic acid [2-[4-[2-furanyl(oxo)methyl]-1-piperazinyl]-2-oxoethyl] ester]
4,44.7 nM,"Cc1nnc(SCC(=O)NC(=O)NCc2ccco2)n1Cc1ccccc1 [2-[(4-benzyl-5-methyl-1,2,4-triazol-3-yl)sulfanyl]-N-(furan-2-ylmethylcarbamoyl)acetamide]"
5,1010 nM,"O=C(O)c1cc(Cl)c2c(c1)[C@@H]1C=CC[C@@H]1[C@H](c1ccc(S(=O)(=O)N3CCOCC3)cc1)N2 [(3aS,4R,9bR)-6-chloranyl-4-(4-morpholin-4-ylsulfonylphenyl)-3a,4,5,9b-tetrahydro-3H-cyclopenta[c]quinoline-8-carboxylic acid]"
6,3.17 nM,Cc1cc(C(=O)Nc2sc3c(c2C#N)CCC3)no1 [MLS000066325]
7,24.3 nM,Cn1ccnc1SCC(=O)Nc1ccc2nc(SCC(=O)NC3CC3)sc2c1 [MLS000085771]
8,9.68 nM,COc1ccc(CNC(=O)c2cc(-c3cccs3)on2)cc1 [MLS000087249]
